Data set [1] relates to p53^e7/e7;chk1^MO embryos. As to the kind of experiment: Epistasis analyses in irradiated p53^e7/e7;chk1^MO embryos (live AO assay). Type of data set: in vivo. The note with it: 12.5 Gy. On the procedure:
To identify such molecules, we performed in vivo epistasis analyses in zebrafish by knocking down or forcing the expression of candidate pathway contributors in p53^e7/e7;chk1^MO embryos.
Morpholino oligonucleotides (MOs) synthesized by Gene Tools™ LLC, were resuspended in sterile water at a concentration of 1 mM and delivered into zebrafish embryos at the one-cell stage by microinjection. The injection apparatus consisted of a heat-pulled, filamentous RNAse free capillary tube positioned by a micromanipulator (Narishige™ M-125), through which the MO was pressure-injected using a nitrogen air supply controlled by a microinjector (Harvard Apparatus™ PLI-100). MOs were delivered into the yolk of embryos at the one cell stage, just below the cytoplasm. For each previously unpublished MO, the working concentration was determined as the highest dose compatible with normal zebrafish development in the p53^e7/e7 background (maximal subtoxic concentration). […] 100 ng of bcl-xl mRNA in vitro transcribed from full-length zebrafish bcl-xl cDNA cloned into pCS2 were injected as described above. All embryos were grown at 28.5° C. in egg water (5 mM NaCl, 0.17 mM KCl, 0.4 mM CaCl2 and 0.16 mM MgSO4). Knockdown efficiencies for the chk1, chk2, atm, atr, p63, casp8 and casp9 MOs at their maximal subtoxic concentrations are shown in FIG. 10. The sequences of the PCR primers used for RT-PCR-based monitoring of MO efficiencies are available upon request.
Live zebrafish embryos were dechorionated in pronase (2.0 mg/mL in egg water) for 3 to 5 min and rinsed five times in egg water at 18 hpf. […] At 24 hpf, embryos were incubated in […] Acridine Orange (AO; Sigma A-6014) in egg water for 30 min at 28.5° C., followed by 3 quick rinses and three 10-min washes in egg water. 5-10 AO-treated embryos were anesthetized in Tricaine ([…]; 3-amino benzoic acid ethylester from Sigma, A-5040) and mounted laterally on a glass slide in warm 0.5% agarose in egg water by streaking a thin layer of the warm agarose across the surface of the slide, and gently pulling the embryos across the agar with a transfer pipette. Lateral images of each zebrafish were acquired on a Zeiss Axioplan2 fluorescence microscope (5× lens), using OpenLab software and a Hammamatsu C4742-95 digital camera. All images were then converted to 8-bit grayscale in NIH ImageJ using the Image>Type>8-bit command. Next, we cropped the images using the Polyonal Selection tool and the Image>Crop functions to include only the trunk of the animal from the head until the beginning of the yolk tube (MO screen; FIG. 1B) or along the entire spinal cord (epistasis analyses; FIGS. 6A & 6D). The area outside of the selected region of interest was cleared using the Edit>Clear Outside command to create a distinct boundary around the area of interest (this is important as it allows the area of interest to be precisely selected after applying the threshold). Next, we split the acquired images into features of interest and background using the Image>Adjust>Threshold function in NIH ImageJ. We then set the maximum threshold of each image to 255 (the lower slide bar in the Threshold window), and adjusted the minimum threshold to the optimized threshold (see below). The threshold was applied using the Black & White display option, with the following Lut options applied; Thresholded pixels to foreground color; Remaining pixels to background color and Black foreground, white background. […] Next, we re-selected the region of interest on the thresholded image, following the bounded image carefully, and analyzed the pixels of the image using the Analyze>Analyze Particles function. The Minimum Size was set to 1px, the Maximum Size was set to the maximum value of 999999 and the Masks option was selected under the Show pull-down menu. The following extended options were also selected: Display Results; Clear Results; Summarize, Size Distribution and Record Starts. […]

The test system of the next data set is p53^+/+ embryos. As to the kind of experiment: Drug toxicity: AO reactivity and development of inhibitor-treated, non-irradiated p53+/+ embryos. It counts as in vivo, zebrafish. The note with it: 0 Gy; Gö6976 1 μM, KU55933 10 μM, Chk2 Inhibitor II 10 μM. An excerpt: (§1) Chk1 inhibitors hold considerable promise in cancer therapy, as they are expected to synergize with genotoxic agents to kill tumor cells lacking functional p53, without affecting normal cells (Kawabe, 2004; Zhou and Bartek, 2004). […] Gö6976 has not been tested in vivo in a vertebrate model system. We therefore evaluated it as well as specific Chk2 and ATM inhibitors in the zebrafish system. Drug toxicity was monitored by scoring the AO reactivity of inhibitor-treated, but non-irradiated, p53^+/+ embryos (left column in FIG. 8A). Unless otherwise indicated, the inhibitors were applied at 18 hpf (that is, immediately before IR) for a total of 6 hours.
Immediately before IR, 18-hpf embryos were dechorionated and transferred to fresh egg water containing 1% DMSO, with or without the following inhibitors at indicated final concentrations: KU55933 (10 μM; Sigma) (Hickson et al., 2004); Chk2 Inhibitor II (10 μM; Calbiochem) (Arienti et al., 2005); Gö6976 (1 μM; Calbiochem) (Kohn et al., 2003). Unless stated otherwise, embryos were exposed to the inhibitors for 6 hr, transferred to fresh egg water, rinsed five times for 5 min, and labeled with AO. For experiments with Tg(rag2:EGFP-bcl-2) larvae, larvae were incubated in the inhibitor solution at 4 dpf, irradiated at 5 dpf, rinsed at 6 dpf, incubated in fresh inhibitor for an additional 72 hr, and mounted live at 9 dpf for fluorescence microscopic analysis of EGFP expression.

The subject of a further data set is p53 mutant embryos. As to the kind of experiment: Live acridine orange (AO) assay of IR-induced cell death in inhibitor-treated p53 mutant embryos. The note with it: 12.5 Gy at 18 hpf; Gö6976 1 μM, KU55933 10 μM, Chk2 Inhibitor II 10 μM; 6 hr. Type of data set: in vivo, zebrafish.
Text: as §1
Live zebrafish embryos were dechorionated in pronase (2.0 mg/mL in egg water) for 3 to 5 min and rinsed five times in egg water at 18 hpf. Embryos were then γ-irradiated (12.5 Gy) using a ^137Cs-irradiator (Gammacell 1000) at 18 hr post-fertilization (hpf). At 24 hpf, embryos were incubated in […] Acridine Orange (AO; Sigma A-6014) in egg water for 30 min at 28.5° C., followed by 3 quick rinses and three 10-min washes in egg water. 5-10 AO-treated embryos were anesthetized in Tricaine ([…]; 3-amino benzoic acid ethylester from Sigma, A-5040) and mounted laterally on a glass slide in warm 0.5% agarose in egg water by streaking a thin layer of the warm agarose across the surface of the slide, and gently pulling the embryos across the agar with a transfer pipette. Lateral images of each zebrafish were acquired on a Zeiss Axioplan2 fluorescence microscope (5× lens), using OpenLab software and a Hammamatsu C4742-95 digital camera. All images were then converted to 8-bit grayscale in NIH ImageJ using the Image>Type>8-bit command. Next, we cropped the images using the Polyonal Selection tool and the Image>Crop functions to include only the trunk of the animal from the head until the beginning of the yolk tube (MO screen; FIG. 1B) or along the entire spinal cord (epistasis analyses; FIGS. 6A & 6D). The area outside of the selected region of interest was cleared using the Edit>Clear Outside command to create a distinct boundary around the area of interest (this is important as it allows the area of interest to be precisely selected after applying the threshold). Next, we split the acquired images into features of interest and background using the Image>Adjust>Threshold function in NIH ImageJ. We then set the maximum threshold of each image to 255 (the lower slide bar in the Threshold window), and adjusted the minimum threshold to the optimized threshold (see below). The threshold was applied using the Black & White display option, with the following Lut options applied; Thresholded pixels to foreground color; Remaining pixels to background color and Black foreground, white background. […] Next, we re-selected the region of interest on the thresholded image, following the bounded image carefully, and analyzed the pixels of the image using the Analyze>Analyze Particles function. The Minimum Size was set to 1px, the Maximum Size was set to the maximum value of 999999 and the Masks option was selected under the Show pull-down menu. The following extended options were also selected: Display Results; Clear Results; Summarize, Size Distribution and Record Starts. If selected by default, the Exclude on Edges option was deselected. The Area Fraction for each image selection was taken from the Summary window, which is the percentage of pixels in the selection that were black. To ensure valid comparisons of the AO labeling results across all experiments, we quantitatively determined a baseline Area Fraction across a large set of simultaneously irradiated and processed p53^+/+ embryos. […] This analysis yielded a mean value for the total labeled surface area of ˜20% (see FIG. 1B, light gray bar). We included at least 6 p53^+/+ non-injected control embryos in all subsequent AO-labeling experiments. […]

Experimental findings from US9000027B2, “Chk1 suppresses a caspase-2 apoptotic response to DNA damage that bypasses p53, bcl-2 and caspase-3” (Dana-Farber Cancer Institute, Inc., priority 2008, dated 2015) are described below.

On to “casp2 MO2: second casp2 morpholino, gt e3/i3 (SEQ ID NO: 23) (antisense ACCATACTAAAGTACCAACCATGAG; all phosphorodiamidate morpholino (PMO))”, for which, in data set [1], the “effect on IR-induced cell death (AO labeling) of p53^e7/e7;chk1^MO embryos” value (from here on “effect on IR-induced cell death”) was “significantly reduced IR-induced death”.

With “casp2 MO1: morpholino targeting the splice donor site of intron 4 of zebrafish casp2 (SEQ ID NO: 22) (CGCTGAAACCCTGTTGTACCTGTGG; all phosphorodiamidate morpholino (PMO))”, the “AO labeling, of the mean p53^e7/e7;chk1^MO response” value in data set [1] (7.5 hpIR) was 16%. Also, in data set [1] (three separate experiments), the “mean decrease in AO labeling compared with p53^e7/e7;chk1^MO embryos” value came out at 6 fold.

For the compound `NC(=O)c1ccc2nc(-c3ccc(Oc4ccc(Cl)cc4)cc3)[nH]c2c1` [Chk2 Inhibitor II], the “toxicity of the dose used (AO reactivity of non-irradiated embryos)” value in the data set on p53^+/+ embryos is recorded as “relatively toxic”. For the same compound, the “radiosensitization of p53 mutants (IR-induced AO labeling)” value with p53 mutant embryos was “only modestly radiosensitized”.

“p73 MO: morpholino against zebrafish TAp73 atg/5'UTR (SEQ ID NO: 29) (antisense GGATGTTGGACAATCCACCGCAGGG; all phosphorodiamidate morpholino (PMO))”: the “effect on IR-induced cell death” value in data set [1] is recorded as “failed to compromise IR-induced cell death”.

Regarding “puma MO: morpholino against zebrafish puma, gt e2/i2 (SEQ ID NO: 27) (antisense AACCAAGCATGACTCTTACCCTCTG; all phosphorodiamidate morpholino (PMO))”, in data set [1], the “effect on IR-induced cell death” value is recorded as “did not significantly affect AO labeling”.

As to “mismatch version of casp2 MO1: 5 base-pair mismatch casp2 morpholino (SEQ ID NO: 24) (antisense CGGTGAAAGCCTCTTCTACCTCTGG; all phosphorodiamidate morpholino (PMO))”, the “effect on IR-induced cell death” value in data set [1] was “had no effect”.

Regarding “casp8 MO: morpholino against zebrafish casp8 splice donor site (SEQ ID NO: 25) (antisense ACAGGGTTTTAACTCACAGTAGATC; all phosphorodiamidate morpholino (PMO))”, the “effect on IR-induced cell death” value in data set [1] is “did not differ”.

In the case of “p63 MO: morpholino against zebrafish p63, gt e3/i3 (SEQ ID NO: 28) (antisense AAAGAGTGGCATACCGTCATTGAAC; all phosphorodiamidate morpholino (PMO))”, the “effect on IR-induced cell death” value in data set [1] is reported as “failed to compromise IR-induced cell death”.

“fadd MO: morpholino against zebrafish FADD, gt e3/i3 (SEQ ID NO: 30) (antisense TAACGTTACCAACCTCGCTCTTTCG; all phosphorodiamidate morpholino (PMO))”: in data set [1], the “effect on IR-induced cell death” value was “failed to affect AO staining”.

With `O=c1cc(-c2cccc3c2Sc2ccccc2S3)oc(N2CCOCC2)c1` [KU55933], in the data set on p53^+/+ embryos, the “toxicity of the dose used (AO reactivity of non-irradiated embryos)” value is on record as “relatively toxic”. In addition, the “radiosensitization of p53 mutants (IR-induced AO labeling)” value with p53 mutant embryos is recorded as “only modestly radiosensitized”.

Take “atm MO: morpholino against zebrafish atm, splice acceptor i55/e56 (SEQ ID NO: 14) (GAAAACGGCACCACCTGGTAAAAAC; antisense; all phosphorodiamidate morpholino (PMO))”: the “reduction of the mean p53^e7/e7;chk1^MO AO response” value in data set [1] is roughly 60%.
